Reference: ChEMBL document CHEMBL6134813, “Arctigenin derivative TZOA restores mitochondrial homeostasis to combat rhabdovirus infections” (Eur J Med Chem, 2025)
Active and inactive are the calls of the source. The calls are words filed in the database; no cut-off is given here.

Legend:
[1] = tested on: Infectious hematopoietic necrosis virus; test: Antiviral activity against IHNV infected in juvenile rainbow trout assessed as decrease in erythrocytes in spleen administered intraperitoneally measured after 2 days by H and E staining based analysis; format: functional, organism-based; settings: route ip, time 2.0 day
[2] = tested on: Infectious hematopoietic necrosis virus; test: Antiviral activity against IHNV infected in EPC cells (unknown origin) assessed as elongated rod-shaped mitochondria with double layered membrane by TEM analysis; format: functional, organism-based
[3] = tested on: Infectious hematopoietic necrosis virus; test: Antiviral activity against IHNV infected in EPC cells (unknown origin) assessed as inhibition of viral M gene expression at 25 uM measured after 72 hrs by RT-qPCR analysis relative to control; format: functional
[4] = tested on: Infectious hematopoietic necrosis virus; test: Antiviral activity against IHNV infected in EPC cells (unknown origin) assessed as inhibition of viral replication at 25 uM pre-infected with virus for 6 hrs followed by compound addition measured after 72 hrs by RT-qPCR analysis relative to control; format: functional
[5] = tested on: Infectious hematopoietic necrosis virus; test: Antiviral activity against IHNV infected in EPC cells (unknown origin) assessed as increase in virus-reduced MAVS expression in cells by Western blot analysis; format: functional, organism-based
[6] = tested on: Infectious hematopoietic necrosis virus; test: Antiviral activity against IHNV infected in juvenile rainbow trout assessed as decrease in viral G gene expression in kidney of recipient fishes on horizontal transmission between virus-infected donor fishes and non-infected recipient fishes at 25 uM immersed together in compound for 48 hrs by qPCR analysis; format: functional, organism-based
[7] = tested on: Infectious hematopoietic necrosis virus; test: Antiviral activity against IHNV infected in EPC cells (unknown origin) assessed as reduction in viral G protein expression at 25 uM pretreated virus with compound for 1 hr followed by compound-treated virus infection in EPC cells measured after 72 hrs by RT-qPCR analysis relative to control; format: functional; design: scale not given: the % may be the effect or the level left
[8] = tested on: Infectious hematopoietic necrosis virus; test: Antiviral activity against IHNV infected in juvenile rainbow trout assessed as increase in Mx1 gene expression in kidney administered intraperitoneally measured after 2 days by RT-qPCR analysis; format: functional, organism-based; settings: route ip, time 2.0 day
[9] = tested on: Infectious hematopoietic necrosis virus; test: Antiviral activity against IHNV infected in EPC cells (unknown origin) assessed as uniform sized nuclei at 25 uM measured after 72 hrs by fluorescence microscopy; format: functional, organism-based
[10] = tested on: Infectious hematopoietic necrosis virus; test: Antiviral activity against IHNV infected in juvenile rainbow trout assessed as decrease in viral titer in donor fishes on horizontal transmission between virus-infected donor fishes and non-infected recipient fishes at 25 uM immersed together in compound for 48 hrs; format: functional, organism-based
[11] = tested on: Infectious hematopoietic necrosis virus; test: Antiviral activity against IHNV infected in EPC cells (unknown origin) assessed as minimal number of apoptotic bodies within observed area at 25 uM measured after 72 hrs by fluorescence microscopy; format: functional, organism-based
[12] = tested on: Infectious hematopoietic necrosis virus; test: Antiviral activity against IHNV infected in juvenile rainbow trout assessed as decrease in hemorrhage in spleen administered intraperitoneally measured after 2 days by H and E staining based analysis; format: functional, organism-based; settings: route ip, time 2.0 day
[13] = tested on: Infectious hematopoietic necrosis virus; test: Antiviral activity against IHNV infected in EPC cells (unknown origin) assessed as inhibition of viral G gene expression at 25 uM measured after 72 hrs by RT-qPCR analysis relative to control; format: functional
[14] = tested on: Infectious hematopoietic necrosis virus; test: Antiviral activity against IHNV infected in juvenile rainbow trout assessed as increase in IRF3 gene expression in spleen administered intraperitoneally measured after 2 days by RT-qPCR analysis; format: functional, organism-based; settings: route ip, time 2.0 day
[15] = tested on: Infectious hematopoietic necrosis virus; test: Antiviral activity against IHNV infected in EPC cells (unknown origin) assessed as reduction in viral load for adsorption at 25 uM measured after 1 hr of incubation at 4 degreeC by RT-qPCR analysis relative to control; format: functional; design: scale not given: the % may be the effect or the level left
[16] = tested on: Infectious hematopoietic necrosis virus; test: Antiviral activity against IHNV infected in EPC cells (unknown origin) assessed as formation of tubular structures by cristae by TEM analysis; format: functional, organism-based
[17] = Cytotoxicity against EPC cells (unknown origin) assessed as cell viability at 64 uM measured after 72 hrs by CCK8 assay; format: toxicity, cell-based
[18] = tested on: Infectious hematopoietic necrosis virus; test: Antiviral activity against IHNV infected in EPC cells (unknown origin) assessed as smooth outer membrane in mitochondria by TEM analysis; format: functional, organism-based
[19] = tested on: Infectious hematopoietic necrosis virus; test: Antiviral activity against IHNV infected in EPC cells (unknown origin) assessed as reduction in virus-induced disruption of mitochondrial membrane potential at 25 uM incubated for 72 hrs by JC-1 dye based analysis; format: functional, organism-based
[20] = tested on: Infectious hematopoietic necrosis virus; test: Antiviral activity against IHNV infected in EPC cells (unknown origin) assessed as reversal of chromatin condensation at 25 uM measured after 72 hrs by fluorescence microscopy; format: functional, organism-based
[21] = tested on: Infectious hematopoietic necrosis virus; test: Antiviral activity against IHNV infected in EPC cells (unknown origin) assessed as reduction in virus-induced mitochondrial-lysosomal contact at 25 uM incubated for 72 hrs by Mito-Tracker/Lyso-Tracker dye based analysis; format: functional, organism-based
[22] = tested on: Infectious hematopoietic necrosis virus; test: Antiviral activity against IHNV infected in EPC cells (unknown origin) assessed as decrease in virus-induced number of individual mitochondria per cell at 25 uM incubated for 72 hrs by Mito-Tracker dye based analysis; format: functional, organism-based
[23] = tested on: Infectious hematopoietic necrosis virus; test: Antiviral activity against IHNV infected in juvenile rainbow trout assessed as increase in Mx1 gene expression in spleen administered intraperitoneally measured after 2 days by RT-qPCR analysis; format: functional, organism-based; settings: route ip, time 2.0 day
[24] = tested on: Infectious hematopoietic necrosis virus; test: Antiviral activity against IHNV infected in EPC cells (unknown origin) assessed as inhibition of viral N gene expression at 25 uM measured after 72 hrs by RT-qPCR analysis relative to control; format: functional
[25] = tested on: Infectious hematopoietic necrosis virus; test: Antiviral activity against IHNV infected in EPC cells (unknown origin) assessed as reduction in viral load for internalization at 25 uM incubated for 1 hr at 4 degreeC followed by 2 hrs of incubation at 25 degreeC by RT-qPCR analysis relative to control; format: functional; design: scale not given: the % may be the effect or the level left; settings: time 3 hrs
[26] = tested on: Infectious hematopoietic necrosis virus; test: Antiviral activity against IHNV infected in EPC cells (unknown origin) assessed as uniform shaped nuclei at 25 uM measured after 72 hrs by fluorescence microscopy; format: functional, organism-based
[27] = tested on: Infectious hematopoietic necrosis virus; test: Antiviral activity against IHNV infected in juvenile rainbow trout assessed as increase in IFN-1 gene expression in kidney administered intraperitoneally measured after 2 days by RT-qPCR analysis; format: functional, organism-based; settings: route ip, time 2.0 day
[28] = tested on: Infectious hematopoietic necrosis virus; test: Antiviral activity against IHNV infected in EPC cells (unknown origin) assessed as viral titer measured per 0.1 ml incubated for 96 hrs by Reed-Muench method (reference value: 1 10^7.77TCID50); format: functional
[29] = tested on: Infectious hematopoietic necrosis virus; test: Antiviral activity against IHNV infected in EPC cells (unknown origin) assessed as mtDNA intact with mitochondria at 25 uM incubated for 72 hrs by TOMM20 dye based analysis; format: functional, organism-based
[30] = tested on: Infectious hematopoietic necrosis virus; test: Antiviral activity against IHNV infected in juvenile rainbow trout assessed as decrease in viral G gene expression in kidney administered intraperitoneally measured after 1 to 4 days by RT-qPCR analysis; format: functional, organism-based; settings: route ip, time 1-4 day

COc1ccc(C[C@H]2COC(=O)[C@@H]2Cc2ccc(OCCCCCCCCn3cncn3)c(OC)c2)cc1OC
Activity [1]: Active | Activity [2]: Active | inhibition at 25 µM [3]: > 90% | inhibition at 25 µM [4]: 80% | Activity [5]: Active | Activity [6]: Active | Activity [7]: 10% | Activity [8]: Active | Activity [9]: Active | Activity [10]: Active | Activity [11]: Active | Activity [12]: Active | inhibition at 25 µM [13]: > 90% | Activity [14]: Active | Activity [15]: 20% | Activity [16]: Active; The Cristae Formed Tubular Structures, With The Inter-Membrane Space Forming The Mitochondrial Outer Chamber And Connecting Cristae Inner Spaces | Activity [17]: Toxic | Activity [18]: Active | Activity [19]: Active | Activity [20]: Active | Activity [21]: Active | Activity [22]: Active | Activity [23]: Active | inhibition at 25 µM [24]: > 90% | Activity [25]: 46% | Activity [26]: Active | Activity [27]: Active | Activity [28]: 1 10^5.48TCID50 | Activity [29]: Active | Activity [30]: Active
